Holding throughout (type): physicochemical
The nature of data set [1]: Number of moles of bound water per mole of complex (TG-DTA). Conditions: for Bound water (number of moles of bound water per mole of complex): Table 1, dried samples for the ternary complexes. How it is done:
The number of moles of bound water per mole of complex was measured using a TG-DTA 2000 from MAC Science.
A 20 g quantity of Eu(PMS)3 was added to 100 mL of isopropanol, then 43 g ([…] the molar amount of the Eu(PMS)3) of triphenylphosphine oxide (hereinafter referred to as TPPO) was added, and the system was refluxed for 3 hours, and then gradually cooled. The resulting white powder was filtered off. The white powder thus obtained was washed with hot n-hexane, and recrystallized with water-methanol to obtain 44 g of Eu(PMS)3(TPPO)8 in the form of white acicular crystals (yield: 85%). The TG-DTA was measured for these crystals, and it was found from the weight reduction at 100° C. that the number of moles of bound water per mole of complex was 2.93. The IR, NMR, UV absorption characteristics, and elemental analysis results for the obtained Eu(PMS)3(TPPO)8(H2O)2.93 are given below.
Eu(PMS)3(TPPO)8(H2O)2.93 obtained by the above synthesis method was dried in vacuo for 3 hours at 140° C. and a reduced pressure of […]. TG-DTA measurement for the resulting white powder was carried out to obtain a weight reduction at 100° C. It was found from the obtained value that the number of moles of bound water per mole of complex was 0.18.

Data set [2] in a line: Miscibility with solvents, visual evaluation at 5 wt %. Conditions: complex added at 5 wt %. More on the design: key: ⊚: dissolves at room temperature; ◯: dissolves when heated for 5 minutes at 40° C.; Δ: dissolves under heating, but cooling precipitates crystals; X: does not dissolve. How it is done: (§1) The miscibility of the rare earth complex with various media was evaluated as follows.
1) Miscibility with Solvents

Data set [3] is described as follows: Miscibility with a polymer matrix, visual evaluation. More on the design: key to Miscibility, PMMA: ⊚: dissolves up to 30 wt %; ◯: dissolves up to 5 wt %; Δ: disperses up to 5 wt %, but there is turbidity; X: repelled at the polymer surface. The method, then: as §1
2) Miscibility with a Polymer Matrix
The rare earth complex serving as the sample was added in the concentrations listed with the evaluation criteria below relative to various media, and the miscibility was visually evaluated according to the following criteria. • ⊚: dissolves up to 30 wt % • ◯: dissolves up to 5 wt % • Δ: disperses up to 5 wt %, but there is turbidity • X: repelled at the polymer surface

Setting [4] is: after drying in vacuo at 140° C.
[5] abbreviates: before drying (crystals as obtained), weight reduction at 100° C.

`O=P(c1ccccc1)(c1ccccc1)c1ccccc1.O=P(c1ccccc1)(c1ccccc1)c1ccccc1.O=P(c1ccccc1)(c1ccccc1)c1ccccc1.O=P(c1ccccc1)(c1ccccc1)c1ccccc1.O=P(c1ccccc1)(c1ccccc1)c1ccccc1.O=P(c1ccccc1)(c1ccccc1)c1ccccc1.O=P(c1ccccc1)(c1ccccc1)c1ccccc1.O=P(c1ccccc1)(c1ccccc1)c1ccccc1.O=S(=O)([N-]S(=O)(=O)C(F)(F)C(F)(F)F)C(F)(F)C(F)(F)F.O=S(=O)([N-]S(=O)(=O)C(F)(F)C(F)(F)F)C(F)(F)C(F)(F)F.O=S(=O)([N-]S(=O)(=O)C(F)(F)C(F)(F)F)C(F)(F)C(F)(F)F.[Eu+3]` [Eu(PES)3(TPPO)8]: the “Bound water (number of moles of bound water per mole of complex)” value in data set [1] came to 0.19. The “Number of moles of bound water per mole of complex” value in data set [1] (setting [4]) is on record as 0.19. For the same molecule, in data set [2], the “Miscibility, Acetone” value is “⊚”; the “Miscibility, Chloroform” value is reported as “⊚”; the “Miscibility, Toluene” value is on record as “◯”; the “Miscibility, Water” value is recorded as “X”. For the same molecule, in data set [3], the “Miscibility, Epoxy resin” value is recorded as “◯ (dissolves up to 5 wt %)”; the “Miscibility, Nafion” value is given as “◯ (dissolves up to 5 wt %)”; the “Miscibility, PMMA” value was “◯ (dissolves up to 5 wt %)”.

As to `O=C(C=C([O-])C(F)(F)F)C(F)(F)F.O=C(C=C([O-])C(F)(F)F)C(F)(F)F.O=C(C=C([O-])C(F)(F)F)C(F)(F)F.O=P(c1ccccc1)(c1ccccc1)c1ccccc1.O=P(c1ccccc1)(c1ccccc1)c1ccccc1.[Nd+3]` [Nd(HFA)3(TPPO)2, reference compound], the “Bound water (number of moles of bound water per mole of complex)” value in data set [1] was 0.00. In data set [2], the “Miscibility, Acetone” value is recorded as “⊚”; the “Miscibility, Chloroform” value is given as “◯”; the “Miscibility, Toluene” value was “◯”; the “Miscibility, Water” value is listed as “X”. Besides, in data set [3], the “Miscibility, Epoxy resin” value was “◯ (dissolves up to 5 wt %)”; the “Miscibility, Nafion” value was “Δ (disperses up to 5 wt %, but there is turbidity)”; the “Miscibility, PMMA” value is reported as “Δ (disperses up to 5 wt %, but there is turbidity)”.

Regarding `O=C(C=C([O-])C(F)(F)F)C(F)(F)F.O=C(C=C([O-])C(F)(F)F)C(F)(F)F.O=C(C=C([O-])C(F)(F)F)C(F)(F)F.[Nd+3]` [Nd(HFA)3, reference compound], the “Bound water (number of moles of bound water per mole of complex)” value in data set [1] is 2.00. For the same molecule, in data set [2], the “Miscibility, Acetone” value is recorded as “⊚”; the “Miscibility, Chloroform” value is given as “X”; the “Miscibility, Toluene” value is on record as “X”; the “Miscibility, Water” value is listed as “X”. In data set [3], the “Miscibility, Epoxy resin” value is “◯ (dissolves up to 5 wt %)”; the “Miscibility, Nafion” value was “Δ (disperses up to 5 wt %, but there is turbidity)”; the “Miscibility, PMMA” value is given as “X”.

Regarding `O=S(=O)([N-]S(=O)(=O)C(F)(F)F)C(F)(F)F.O=S(=O)([N-]S(=O)(=O)C(F)(F)F)C(F)(F)F.O=S(=O)([N-]S(=O)(=O)C(F)(F)F)C(F)(F)F.[Nd+3].c1cnc2c(c1)ccc1cccnc12.c1cnc2c(c1)ccc1cccnc12.c1cnc2c(c1)ccc1cccnc12.c1cnc2c(c1)ccc1cccnc12` [Nd(PMS)3(Phen)m], in data set [1], the “Bound water (number of moles of bound water per mole of complex)” value is reported as 0.00. Further, in data set [2], the “Miscibility, Acetone” value is listed as “⊚”; the “Miscibility, Chloroform” value is “Δ”; the “Miscibility, Toluene” value is given as “Δ”; the “Miscibility, Water” value is recorded as “X”. In data set [3], the “Miscibility, Epoxy resin” value is given as “◯ (dissolves up to 5 wt %)”; the “Miscibility, Nafion” value is “◯ (dissolves up to 5 wt %)”; the “Miscibility, PMMA” value is on record as “◯ (dissolves up to 5 wt %)”.

In the case of `O=S(=O)([N-]S(=O)(=O)C(F)(F)F)C(F)(F)F.O=S(=O)([N-]S(=O)(=O)C(F)(F)F)C(F)(F)F.O=S(=O)([N-]S(=O)(=O)C(F)(F)F)C(F)(F)F.O=S(c1ccccc1)c1ccccc1.O=S(c1ccccc1)c1ccccc1.O=S(c1ccccc1)c1ccccc1.O=S(c1ccccc1)c1ccccc1.O=S(c1ccccc1)c1ccccc1.O=S(c1ccccc1)c1ccccc1.O=S(c1ccccc1)c1ccccc1.O=S(c1ccccc1)c1ccccc1.[Tb+3]` [Tb(PMS)3(DPSO)8], the “Bound water (number of moles of bound water per mole of complex)” value in data set [1] came out at 0.00. Besides, in data set [2], the “Miscibility, Acetone” value is “⊚”; the “Miscibility, Chloroform” value is given as “◯”; the “Miscibility, Toluene” value is reported as “◯”; the “Miscibility, Water” value is listed as “X”. In data set [3], the “Miscibility, Epoxy resin” value is “◯ (dissolves up to 5 wt %)”; the “Miscibility, Nafion” value is “◯ (dissolves up to 5 wt %)”; the “Miscibility, PMMA” value was “◯ (dissolves up to 5 wt %)”.

For the molecule `O=P(c1ccccc1)(c1ccccc1)c1ccccc1.O=P(c1ccccc1)(c1ccccc1)c1ccccc1.O=P(c1ccccc1)(c1ccccc1)c1ccccc1.O=P(c1ccccc1)(c1ccccc1)c1ccccc1.O=P(c1ccccc1)(c1ccccc1)c1ccccc1.O=P(c1ccccc1)(c1ccccc1)c1ccccc1.O=P(c1ccccc1)(c1ccccc1)c1ccccc1.O=P(c1ccccc1)(c1ccccc1)c1ccccc1.O=S(=O)([N-]S(=O)(=O)C(F)(F)F)C(F)(F)F.O=S(=O)([N-]S(=O)(=O)C(F)(F)F)C(F)(F)F.O=S(=O)([N-]S(=O)(=O)C(F)(F)F)C(F)(F)F.[Tb+3]` [Tb(PMS)3(TPPO)8], the “Bound water (number of moles of bound water per mole of complex)” value in data set [1] worked out at 0.08. Also, the “Number of moles of bound water per mole of complex” value in data set [1] (setting [4]) stood at 0.08. In data set [1] (setting [5]), the “Number of moles of bound water per mole of complex” value was 1.27. Also, in data set [2], the “Miscibility, Acetone” value was “⊚”; the “Miscibility, Chloroform” value is reported as “⊚”; the “Miscibility, Toluene” value is on record as “◯”; the “Miscibility, Water” value is given as “X”. Moreover, in data set [3], the “Miscibility, Epoxy resin” value was “◯ (dissolves up to 5 wt %)”; the “Miscibility, Nafion” value is listed as “◯ (dissolves up to 5 wt %)”; the “Miscibility, PMMA” value is recorded as “◯ (dissolves up to 5 wt %)”.

In the case of `O=P(c1ccccc1)(c1ccccc1)c1ccccc1.O=P(c1ccccc1)(c1ccccc1)c1ccccc1.O=P(c1ccccc1)(c1ccccc1)c1ccccc1.O=P(c1ccccc1)(c1ccccc1)c1ccccc1.O=P(c1ccccc1)(c1ccccc1)c1ccccc1.O=P(c1ccccc1)(c1ccccc1)c1ccccc1.O=P(c1ccccc1)(c1ccccc1)c1ccccc1.O=P(c1ccccc1)(c1ccccc1)c1ccccc1.O=S(=O)([N-]S(=O)(=O)C(F)(F)F)C(F)(F)F.O=S(=O)([N-]S(=O)(=O)C(F)(F)F)C(F)(F)F.O=S(=O)([N-]S(=O)(=O)C(F)(F)F)C(F)(F)F.[Yb+3]` [Yb(PMS)3(TPPO)8], in data set [1], the “Bound water (number of moles of bound water per mole of complex)” value is reported as 0.27. For the same molecule, in data set [1] (setting [4]), the “Number of moles of bound water per mole of complex” value was found to be 0.27. In data set [1] (setting [5]), the “Number of moles of bound water per mole of complex” value is listed as 1.52. Also, in data set [2], the “Miscibility, Acetone” value is listed as “⊚”; the “Miscibility, Chloroform” value is recorded as “⊚”; the “Miscibility, Toluene” value is “◯”; the “Miscibility, Water” value was “X”. For the same molecule, in data set [3], the “Miscibility, Epoxy resin” value was “◯ (dissolves up to 5 wt %)”; the “Miscibility, Nafion” value is listed as “◯ (dissolves up to 5 wt %)”; the “Miscibility, PMMA” value is “◯ (dissolves up to 5 wt %)”.

Source of the values: patent US20050261264A1, “Rare-earth ternary complex” (priority 2000, published 2005).
